Reference: DBAASP
Converted amounts (≈) assume the structure as drawn. “And” between values parts separate entries of the source, which are not always exact repeats. Identical values can stand only once.

Legend:
Assay in all cases: ≥ marks a high value that may be exact or a test limit, other limits are often not marked, values filed in µg/mL are converted to µM
[1] = tested on: Acinetobacter baumannii ATCC 19606
Acinetobacter baumannii = tested on: Acinetobacter baumannii
[2] = tested on: Bacillus subtilis CCT 2471
Bacillus subtilis DELTA = tested on: Bacillus subtilis DELTA
Bacillus thuringiensis = tested on: Bacillus thuringiensis
[3] = tested on: Candida albicans ATCC 10231
[4] = tested on: Candida albicans ATCC 200955
Candida parapsilosis = tested on: Candida parapsilosis
[5] = tested on: Enterobacter cloacae ATCC 23355
[6] = tested on: Enterococcus faecium ATCC 700221
Escherichia coli 780 = tested on: Escherichia coli 780
Escherichia coli 804 = tested on: Escherichia coli 804
Escherichia coli 850 = tested on: Escherichia coli 850
[7] = tested on: Escherichia coli ATCC 8739
[8] = tested on: Escherichia coli CCT 1371
[9] = tested on: Escherichia coli DH5alpha
Escherichia coli DL7 = tested on: Escherichia coli DL7
Escherichia coli MG1655 = tested on: Escherichia coli MG1655
Escherichia coli ML-35 = tested on: Escherichia coli ML-35
[10] = tested on: Klebsiella aerogenes ATCC 13048
[11] = tested on: Klebsiella pneumoniae ATCC 700603
Proteus mirabilis = tested on: Proteus mirabilis
[12] = tested on: Pseudomonas aeruginosa 119
[13] = tested on: Pseudomonas aeruginosa 124
[14] = tested on: Pseudomonas aeruginosa 86
[15] = tested on: Pseudomonas aeruginosa PAO1
Pseudomonas aeruginosa = tested on: Pseudomonas aeruginosa
[16] = tested on: Staphylococcus aureus 936
[17] = tested on: Staphylococcus aureus ATCC 33591
[18] = tested on: Staphylococcus aureus ATCC 6538
Staphylococcus aureus MR = tested on: Staphylococcus aureus MR
[19] = tested on: Staphylococcus epidermidis ATCC 12228
[20] = tested on: Staphylococcus saprophyticus
[21] = tested on: Zymomonas mobilis ATCC 10988

MIC [1]: 64 µM (≈ 73.8 µg/mL)
MIC (Acinetobacter baumannii): 16 µM (≈ 18.5 µg/mL)
MIC [2]: 17.3 µM (≈ 20 µg/mL)
MIC (Bacillus subtilis DELTA): ≥ 173 µM
MIC (Bacillus thuringiensis): ≥ 173 µM
MIC [3]: 16.9 µM (≈ 19.5 µg/mL)
MIC [4]: ≥ 171 µM
MIC (Candida parapsilosis): ≥ 43.3 µM
MIC [5]: ≥ 173 µM
MIC [6]: ≥ 133 µM
MIC (Escherichia coli 780): 16 µM (≈ 18.5 µg/mL)
MIC (Escherichia coli 804): ≥ 32 µM
MIC (Escherichia coli 850): ≥ 32 µM
MIC [7]: ≥ 35.5 µM
MIC [8]: ≥ 86.6 µM
MIC [9]: ≥ 260 µM
MIC (Escherichia coli DL7): 16 µM (≈ 18.5 µg/mL)
MIC (Escherichia coli MG1655): ≥ 32 µM
MIC (Escherichia coli ML-35): 8 µM (≈ 9.23 µg/mL)
MIC [10]: ≥ 32 µM
MIC [11]: 64 µM and 128 µM
MIC (Proteus mirabilis): ≥ 173 µM
MIC [12]: 4 µM (≈ 4.61 µg/mL)
MIC [13]: ≥ 32 µM
MIC [14]: 4 µM (≈ 4.61 µg/mL)
MIC [15]: 173 µM (≈ 200 µg/mL)
MIC (Pseudomonas aeruginosa): 11.3 µM (≈ 13.1 µg/mL)
MIC [16]: ≥ 64 µM
MIC [17]: ≥ 512 µM
MIC [18]: 43.3 µM and 65 µM
MIC (Staphylococcus aureus MR): ≥ 45.3 µM
MIC [19]: 8 µM (≈ 9.23 µg/mL)
MIC [20]: 4.33 µM (≈ 5 µg/mL)
MIC [21]: ≥ 173 µM
SMILES: CC[C@H](C)[C@H](NC(=O)[C@H](CCCN=C(N)N)NC(=O)[C@H](CCCCN)NC(=O)[C@H](CC(C)C)NC(=O)[C@H](CC(C)C)NC(=O)CN)C(=O)N[C@@H](CCCCN)C(=O)N[C@H](C(=O)N[C@@H](CC(C)C)C(=O)N[C@@H](CC(C)C)C(N)=O)[C@@H](C)O [GLLKRIKTLL]
